Source: ChEMBL document CHEMBL1201862, “PubChem BioAssay data set” (2004)
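Cultured in 96-well plates, cells were exposed to test compound for 48 hours across five concentrations. Here, GI50 denotes the concentration required for 50% inhibition of growth.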 Calls of active or inactive are those of the source. Rule as the data show it: active = GI50 up to about 1.1 µM and inactive = higher.

Key:
Experiment in all cases: NCI-60 cell line screen, 48 h
786-0 = tested on: 786-0
A498 = tested on: A498
A549 = tested on: A549
BT-549 = tested on: BT-549
CAKI-1 = tested on: CAKI-1
CCRF-CEM = tested on: CCRF-CEM
COLO 205 = tested on: COLO 205
DU-145 = tested on: DU-145
EKVX = tested on: EKVX
HCT-116 = tested on: HCT-116
HCT-15 = tested on: HCT-15
HL-60 = tested on: HL-60
HOP-62 = tested on: HOP-62
HOP-92 = tested on: HOP-92
HT-29 = tested on: HT-29
Hs-578T = tested on: Hs-578T
IGROV-1 = tested on: IGROV-1
K562 = tested on: K562
KM12 = tested on: KM12
LOX IMVI = tested on: LOX IMVI
M14 = tested on: M14
MDA-MB-231 = tested on: MDA-MB-231
MDA-MB-435 = tested on: MDA-MB-435
MDA-N = tested on: MDA-N
MOLT-4 = tested on: MOLT-4
Malme-3M = tested on: Malme-3M
NCI-H226 = tested on: NCI-H226
NCI-H23 = tested on: NCI-H23
NCI-H522 = tested on: NCI-H522
NCI/ADR-RES = tested on: NCI/ADR-RES
OVCAR-3 = tested on: OVCAR-3
OVCAR-4 = tested on: OVCAR-4
OVCAR-5 = tested on: OVCAR-5
OVCAR-8 = tested on: OVCAR-8
PC-3 = tested on: PC-3
RPMI-8226 = tested on: RPMI-8226
RXF 393 = tested on: RXF 393
SF-268 = tested on: SF-268
SF-295 = tested on: SF-295
SK-MEL-28 = tested on: SK-MEL-28
SK-MEL-2 = tested on: SK-MEL-2
SK-MEL-5 = tested on: SK-MEL-5
SK-OV-3 = tested on: SK-OV-3
SN12C = tested on: SN12C
SNB-19 = tested on: SNB-19
SNB-75 = tested on: SNB-75
SR = tested on: SR
SW-620 = tested on: SW-620
T47D = tested on: T47D
TK-10 = tested on: TK-10
U-251 = tested on: U-251
UACC-257 = tested on: UACC-257
UACC-62 = tested on: UACC-62
UO-31 = tested on: UO-31
ACHN = tested on: ACHN
HCC 2998 = tested on: HCC 2998
MCF7 = tested on: MCF7
NCI-H460 = tested on: NCI-H460
SF-539 = tested on: SF-539

SMILES: O=C1c2cccnc2S(=O)(=O)N1c1ccc(Br)cc1
- GI50 (786-0): > 100 µM (inactive)
- GI50 (A498): > 100 µM (inactive)
- GI50 (A549): > 100 µM (inactive)
- GI50 (BT-549): 79.1 µM (inactive)
- GI50 (CAKI-1): > 100 µM (inactive)
- GI50 (CCRF-CEM): 43 µM (inactive)
- GI50 (COLO 205): > 100 µM (inactive)
- GI50 (DU-145): > 100 µM (inactive)
- GI50 (EKVX): > 100 µM (inactive)
- GI50 (HCT-116): > 100 µM (inactive)
- GI50 (HCT-15): > 100 µM
- GI50 (HL-60): < 0.01 µM (active)
- GI50 (HOP-62): > 100 µM (inactive)
- GI50 (HOP-92): 99.8 µM (inactive)
- GI50 (HT-29): > 100 µM (inactive)
- GI50 (Hs-578T): > 100 µM (inactive)
- GI50 (IGROV-1): > 100 µM (inactive)
- GI50 (K562): 41.6 µM (inactive)
- GI50 (KM12): > 100 µM (inactive)
- GI50 (LOX IMVI): > 100 µM (inactive)
- GI50 (M14): > 100 µM (inactive)
- GI50 (MDA-MB-231): > 100 µM (inactive)
- GI50 (MDA-MB-435): > 100 µM (inactive)
- GI50 (MDA-N): > 100 µM (inactive)
- GI50 (MOLT-4): > 100 µM (inactive)
- GI50 (Malme-3M): 73.6 µM (inactive)
- GI50 (NCI-H226): > 100 µM (inactive)
- GI50 (NCI-H23): > 100 µM (inactive)
- GI50 (NCI-H522): > 100 µM (inactive)
- GI50 (NCI/ADR-RES): > 100 µM (inactive)
- GI50 (OVCAR-3): > 100 µM (inactive)
- GI50 (OVCAR-4): > 100 µM (inactive)
- GI50 (OVCAR-5): > 100 µM (inactive)
- GI50 (OVCAR-8): > 100 µM (inactive)
- GI50 (PC-3): 72.4 µM (inactive)
- GI50 (RPMI-8226): 91.6 µM (inactive)
- GI50 (RXF 393): > 100 µM (inactive)
- GI50 (SF-268): > 100 µM (inactive)
- GI50 (SF-295): > 100 µM (inactive)
- GI50 (SK-MEL-28): > 100 µM (inactive)
- GI50 (SK-MEL-2): > 100 µM (inactive)
- GI50 (SK-MEL-5): > 100 µM (inactive)
- GI50 (SK-OV-3): > 100 µM (inactive)
- GI50 (SN12C): > 100 µM (inactive)
- GI50 (SNB-19): 75.7 µM (inactive)
- GI50 (SNB-75): 95.1 µM (inactive)
- GI50 (SR): 41.3 µM (inactive)
- GI50 (SW-620): > 100 µM (inactive)
- GI50 (T47D): > 100 µM (inactive)
- GI50 (TK-10): > 100 µM (inactive)
- GI50 (U-251): > 100 µM (inactive)
- GI50 (UACC-257): > 100 µM (inactive)
- GI50 (UACC-62): > 100 µM (inactive)
- GI50 (UO-31): > 100 µM (inactive)

SMILES: CC(=O)C(C(=O)c1ccc(C)cc1)[C@H]1OC(C)(C)O[C@H]1[C@H]1COC(C)(C)O1 (stereo partly specified)
- GI50 (786-0): 2.88 µM (inactive)
- GI50 (A498): 7.55 µM (inactive)
- GI50 (A549): 11.2 µM (inactive)
- GI50 (ACHN): 6.15 µM (inactive)
- GI50 (BT-549): 6.3 µM (inactive)
- GI50 (CAKI-1): 5.38 µM (inactive)
- GI50 (COLO 205): 10.3 µM (inactive)
- GI50 (EKVX): 5.32 µM (inactive)
- GI50 (HCC 2998): 7.24 µM (inactive)
- GI50 (HCT-116): 2.25 µM (inactive)
- GI50 (HCT-15): 2.99 µM
- GI50 (HOP-62): 6.12 µM (inactive)
- GI50 (HOP-92): 7.98 µM (inactive)
- GI50 (HT-29): 2.2 µM (inactive)
- GI50 (Hs-578T): 3.08 µM (inactive)
- GI50 (IGROV-1): 3.17 µM (inactive)
- GI50 (K562): 1.78 µM (inactive)
- GI50 (KM12): 8.75 µM (inactive)
- GI50 (LOX IMVI): 2.06 µM (inactive)
- GI50 (M14): 6.9 µM (inactive)
- GI50 (MCF7): 1.97 µM (inactive)
- GI50 (MDA-MB-231): 5.82 µM (inactive)
- GI50 (MDA-MB-435): 2.24 µM (inactive)
- GI50 (MDA-N): 1.85 µM (inactive)
- GI50 (MOLT-4): 1.66 µM (inactive)
- GI50 (Malme-3M): 6.92 µM (inactive)
- GI50 (NCI-H226): 14.5 µM (inactive)
- GI50 (NCI-H23): 2.07 µM (inactive)
- GI50 (NCI-H460): 7.05 µM (inactive)
- GI50 (NCI-H522): 2.34 µM (inactive)
- GI50 (NCI/ADR-RES): 4.54 µM (inactive)
- GI50 (OVCAR-4): 2.53 µM (inactive)
- GI50 (OVCAR-5): 8.39 µM (inactive)
- GI50 (OVCAR-8): 1.9 µM (inactive)
- GI50 (PC-3): 2.55 µM (inactive)
- GI50 (RPMI-8226): 1.6 µM (inactive)
- GI50 (RXF 393): 2.69 µM (inactive)
- GI50 (SF-268): 2.81 µM (inactive)
- GI50 (SF-295): 7.78 µM (inactive)
- GI50 (SF-539): 1.87 µM (inactive)
- GI50 (SK-MEL-28): 6.18 µM (inactive)
- GI50 (SK-MEL-2): 2.92 µM (inactive)
- GI50 (SK-MEL-5): 5.08 µM (inactive)
- GI50 (SK-OV-3): 10.3 µM (inactive)
- GI50 (SN12C): 1.9 µM (inactive)
- GI50 (SNB-19): 9.95 µM (inactive)
- GI50 (SNB-75): 3.78 µM (inactive)
- GI50 (SR): 1.42 µM (inactive)
- GI50 (SW-620): 1.84 µM (inactive)
- GI50 (T47D): 6.53 µM (inactive)
- GI50 (TK-10): 7.73 µM (inactive)
- GI50 (U-251): 1.91 µM (inactive)
- GI50 (UACC-257): 5.31 µM (inactive)
- GI50 (UACC-62): 6.1 µM (inactive)
- GI50 (UO-31): 6.98 µM (inactive)

SMILES: c1csc(-c2ccc(-c3ccsc3)s2)c1
- GI50 (786-0): > 100 µM (inactive)
- GI50 (A498): > 100 µM (inactive)
- GI50 (A549): > 100 µM (inactive)
- GI50 (ACHN): > 100 µM (inactive)
- GI50 (BT-549): > 100 µM (inactive)
- GI50 (CAKI-1): > 100 µM (inactive)
- GI50 (CCRF-CEM): > 100 µM (inactive)
- GI50 (COLO 205): > 100 µM (inactive)
- GI50 (EKVX): > 87.3 µM (inactive)
- GI50 (HCC 2998): > 100 µM (inactive)
- GI50 (HCT-116): > 100 µM (inactive)
- GI50 (HCT-15): > 100 µM
- GI50 (HL-60): > 100 µM (inactive)
- GI50 (HOP-62): > 100 µM (inactive)
- GI50 (HOP-92): > 100 µM (inactive)
- GI50 (HT-29): > 100 µM (inactive)
- GI50 (Hs-578T): 98.4 µM (inactive)
- GI50 (IGROV-1): > 100 µM (inactive)
- GI50 (K562): > 100 µM (inactive)
- GI50 (KM12): > 100 µM (inactive)
- GI50 (LOX IMVI): > 100 µM (inactive)
- GI50 (M14): > 100 µM (inactive)
- GI50 (MCF7): > 100 µM (inactive)
- GI50 (MDA-MB-231): > 100 µM (inactive)
- GI50 (MDA-MB-435): > 100 µM (inactive)
- GI50 (MDA-N): > 100 µM (inactive)
- GI50 (MOLT-4): > 100 µM (inactive)
- GI50 (Malme-3M): > 100 µM (inactive)
- GI50 (NCI-H226): > 75.5 µM (inactive)
- GI50 (NCI-H23): > 100 µM (inactive)
- GI50 (NCI-H460): > 100 µM (inactive)
- GI50 (NCI-H522): > 100 µM (inactive)
- GI50 (NCI/ADR-RES): > 100 µM (inactive)
- GI50 (OVCAR-4): > 100 µM (inactive)
- GI50 (OVCAR-5): > 100 µM (inactive)
- GI50 (OVCAR-8): > 100 µM (inactive)
- GI50 (PC-3): 97.5 µM (inactive)
- GI50 (RPMI-8226): > 100 µM (inactive)
- GI50 (RXF 393): > 87.9 µM (inactive)
- GI50 (SF-268): > 100 µM (inactive)
- GI50 (SF-295): > 100 µM (inactive)
- GI50 (SF-539): 68.5 µM (inactive)
- GI50 (SK-MEL-28): > 100 µM (inactive)
- GI50 (SK-MEL-2): > 100 µM (inactive)
- GI50 (SK-MEL-5): > 100 µM (inactive)
- GI50 (SK-OV-3): > 100 µM (inactive)
- GI50 (SN12C): > 100 µM (inactive)
- GI50 (SNB-19): > 100 µM (inactive)
- GI50 (SNB-75): 57.4 µM (inactive)
- GI50 (SR): > 100 µM (inactive)
- GI50 (SW-620): > 100 µM (inactive)
- GI50 (T47D): > 27.4 µM (inactive)
- GI50 (TK-10): > 100 µM (inactive)
- GI50 (U-251): > 100 µM (inactive)
- GI50 (UACC-257): > 100 µM (inactive)
- GI50 (UACC-62): > 100 µM (inactive)
- GI50 (UO-31): > 100 µM (inactive)
